The values that follow come from ChEMBL document CHEMBL1147397, “Biemnasterol, a new cytotoxic sterol with the rare 22,25-diene side chain, isolated from the marine sponge Biemna sp” (J Nat Prod, 1993).

Converted amounts (≈) assume the structure as drawn.

One test relates to KB. Nature of the test: Cytotoxicity against human KB cells. Format: functional, cell-based.
In the next test the test system is L1210. Nature of the test: Cytotoxicity against mouse L1210 cells. It counts as functional, cell-based.

On to `C=C(C)[C@H](C)/C=C/[C@@H](C)[C@H]1CC[C@H]2C3=C[C@@H](O)[C@@]4(O)C[C@@H](O)CC[C@]4(C)[C@H]3CC[C@]12C` [BIEMNASTEROL], for which the half-maximal inhibitory concentration (IC50) in the test on KB amounted to 1.3 µg/mL (≈ 3.03 µM); in the test on L1210, 3 µg/mL (≈ 7 µM).
